Values of other authors as cited in US20210244680A1, “WEARABLE LIPOSOMAL CANNABIDIOL TRANSDERMAL PATCH” (priority 2020, published 2021).

Test system: rats with arthritis
Details: topical gel containing CBD applied to rats with arthritis for 4 days

C=C(C)[C@@H]1CCC(C)=C[C@H]1c1c(O)cc(CCCCC)cc1O [CBD, Cannabidiol]
inflammation and signs of pain: significant drop in inflammation and signs of pain | side effects: without additional side effects
